Data from ChEMBL document CHEMBL1201862, “PubChem BioAssay data set” (2004).
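48-hour exposure; five concentrations; linearly interpolated endpoints. GI50 marks 50% less growth.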 Active and inactive are the calls of the source. Rule as the data show it: active = GI50 up to about 1.1 µM and inactive = higher.

How the values were obtained:
Assay in all cases: DTP human tumour cell line panel, 48 h
786-0 = test system: 786-0
A498 = test system: A498
A549 = test system: A549
ACHN = test system: ACHN
BT-549 = test system: BT-549
CAKI-1 = test system: CAKI-1
CCRF-CEM = test system: CCRF-CEM
COLO 205 = test system: COLO 205
DU-145 = test system: DU-145
EKVX = test system: EKVX
HCC 2998 = test system: HCC 2998
HCT-116 = test system: HCT-116
HCT-15 = test system: HCT-15
HL-60 = test system: HL-60
HOP-62 = test system: HOP-62
HT-29 = test system: HT-29
Hs-578T = test system: Hs-578T
IGROV-1 = test system: IGROV-1
K562 = test system: K562
KM12 = test system: KM12
LOX IMVI = test system: LOX IMVI
M14 = test system: M14
MCF7 = test system: MCF7
MDA-MB-231 = test system: MDA-MB-231
MDA-MB-435 = test system: MDA-MB-435
MDA-N = test system: MDA-N
MOLT-4 = test system: MOLT-4
Malme-3M = test system: Malme-3M
NCI-H226 = test system: NCI-H226
NCI-H23 = test system: NCI-H23
NCI-H460 = test system: NCI-H460
NCI-H522 = test system: NCI-H522
NCI/ADR-RES = test system: NCI/ADR-RES
OVCAR-3 = test system: OVCAR-3
OVCAR-5 = test system: OVCAR-5
OVCAR-8 = test system: OVCAR-8
PC-3 = test system: PC-3
RPMI-8226 = test system: RPMI-8226
SF-268 = test system: SF-268
SF-295 = test system: SF-295
SF-539 = test system: SF-539
SK-MEL-28 = test system: SK-MEL-28
SK-MEL-2 = test system: SK-MEL-2
SK-MEL-5 = test system: SK-MEL-5
SK-OV-3 = test system: SK-OV-3
SN12C = test system: SN12C
SNB-19 = test system: SNB-19
SNB-75 = test system: SNB-75
SR = test system: SR
SW-620 = test system: SW-620
T47D = test system: T47D
TK-10 = test system: TK-10
U-251 = test system: U-251
UACC-257 = test system: UACC-257
UACC-62 = test system: UACC-62
UO-31 = test system: UO-31
HOP-92 = test system: HOP-92
OVCAR-4 = test system: OVCAR-4
RXF 393 = test system: RXF 393

Measured: GI50

COc1ccc(OC2OC(COC(c3ccccc3)(c3ccc(OC)cc3)c3ccc(OC)cc3)C(O)C(O)C2O)cc1 (stereo not drawn)
2.86 µM: HCT-15
inactive: 786-0 2.32 µM | A498 11.7 µM | A549 2.99 µM | ACHN 4 µM | BT-549 12.5 µM | CAKI-1 4.75 µM | CCRF-CEM 2.08 µM | COLO 205 3.85 µM | DU-145 21.3 µM | EKVX 4.7 µM | HCC 2998 3.44 µM | HCT-116 3.26 µM | HL-60 2.58 µM | HOP-62 11.4 µM | HT-29 2.4 µM | Hs-578T 3.96 µM | IGROV-1 5.93 µM | K562 2.84 µM | KM12 3.55 µM | LOX IMVI 1.8 µM | M14 2.84 µM | MCF7 3.75 µM | MDA-MB-231 4.6 µM | MDA-MB-435 3.13 µM | MDA-N 4.37 µM | MOLT-4 1.33 µM | Malme-3M 2.77 µM | NCI-H226 12.3 µM | NCI-H23 3.66 µM | NCI-H460 2.99 µM | NCI-H522 3.49 µM | NCI/ADR-RES 3.48 µM | OVCAR-3 4.21 µM | OVCAR-5 6.25 µM | OVCAR-8 5.24 µM | PC-3 2.09 µM | RPMI-8226 4.47 µM | SF-268 3.39 µM | SF-295 4.28 µM | SF-539 4.42 µM | SK-MEL-28 2.41 µM | SK-MEL-2 2.61 µM | SK-MEL-5 5.06 µM | SK-OV-3 6.43 µM | SN12C 2.51 µM | SNB-19 9.66 µM | SNB-75 3.32 µM | SR 3.74 µM | SW-620 3.77 µM | T47D 6.76 µM | TK-10 5.33 µM | U-251 3.6 µM | UACC-257 6.64 µM | UACC-62 3.43 µM | UO-31 2.06 µM

Cc1ccc(S(=O)(=O)N2CCC[C@@H]2C(=O)O[C@@H]2CCC3CC=CC32)cc1 (stereo partly drawn)
32.7 µM: HCT-15
inactive: 786-0 19.9 µM | A498 24.8 µM | A549 34.5 µM | ACHN 38.5 µM | BT-549 18.9 µM | CCRF-CEM 24.8 µM | COLO 205 16.6 µM | DU-145 45.6 µM | EKVX 41.6 µM | HCC 2998 31.5 µM | HCT-116 30.4 µM | HL-60 11.5 µM | HOP-62 29.9 µM | HOP-92 15.3 µM | HT-29 24 µM | Hs-578T 33.3 µM | IGROV-1 39.9 µM | K562 14 µM | KM12 28.3 µM | LOX IMVI 16.1 µM | M14 34.6 µM | MCF7 33.9 µM | MDA-MB-231 45.9 µM | MDA-MB-435 35.1 µM | MDA-N 29.2 µM | MOLT-4 17.6 µM | Malme-3M 24.5 µM | NCI-H226 19.9 µM | NCI-H23 35.1 µM | NCI-H460 35.6 µM | NCI-H522 18.9 µM | NCI/ADR-RES 19.3 µM | OVCAR-3 12.1 µM | OVCAR-4 47 µM | OVCAR-5 45.8 µM | OVCAR-8 34.4 µM | PC-3 21.4 µM | RPMI-8226 18.7 µM | RXF 393 20 µM | SF-268 15.1 µM | SF-295 36.8 µM | SF-539 44.5 µM | SK-MEL-28 47.9 µM | SK-MEL-5 14.8 µM | SK-OV-3 22.2 µM | SN12C 28.1 µM | SNB-19 34.4 µM | SNB-75 26.1 µM | SR 11.6 µM | SW-620 40.3 µM | T47D 20.9 µM | TK-10 42.5 µM | U-251 34.3 µM | UACC-257 22.2 µM | UACC-62 27.9 µM | UO-31 13.6 µM
